The values that follow come from US20160355530A1, “HEPATITIS C INHIBITORS AND USES THEREOF” (AbbVie Inc., priority 2010, published 2016).

Structures are written as SMILES. pEC50, pIC50: −log10 of the molar value. Read-outs that look alike come from different tables or passages of the source. Bounds are passed on as bounds.

The test system of assay [1] is HCV NS5B polymerase 1a-H77-C316Y. Nature of the assay: biochemical. Also noted: species or system HCV genotype 1a. The following applies: ratio of enzyme IC50s, 1a H77-C316Y / 1a H77. The method, boiled down:
(§1)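 Incorporation of [3H]UTP (0.284 μM), alongside 20 μM each CTP and ATP, into RNA copied from a 5 nM 2.1 kb genotype 1b negative-strand template was measured after 3 h at 30° C using purified His-tagged NS5B truncated at residue 570. Product was spermine-precipitated, filtered and scintillation-counted; nonlinear regression gave IC50.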

Assay [2] deals with T1, HCV NS5B polymerase 1a-H77 (Hepatitis C virus genotype 1a, UniProt P27958).
T1 construct: six-histidine tag; made in house; host or cells: E. coli
T1 sequence (P27958 2421-2990): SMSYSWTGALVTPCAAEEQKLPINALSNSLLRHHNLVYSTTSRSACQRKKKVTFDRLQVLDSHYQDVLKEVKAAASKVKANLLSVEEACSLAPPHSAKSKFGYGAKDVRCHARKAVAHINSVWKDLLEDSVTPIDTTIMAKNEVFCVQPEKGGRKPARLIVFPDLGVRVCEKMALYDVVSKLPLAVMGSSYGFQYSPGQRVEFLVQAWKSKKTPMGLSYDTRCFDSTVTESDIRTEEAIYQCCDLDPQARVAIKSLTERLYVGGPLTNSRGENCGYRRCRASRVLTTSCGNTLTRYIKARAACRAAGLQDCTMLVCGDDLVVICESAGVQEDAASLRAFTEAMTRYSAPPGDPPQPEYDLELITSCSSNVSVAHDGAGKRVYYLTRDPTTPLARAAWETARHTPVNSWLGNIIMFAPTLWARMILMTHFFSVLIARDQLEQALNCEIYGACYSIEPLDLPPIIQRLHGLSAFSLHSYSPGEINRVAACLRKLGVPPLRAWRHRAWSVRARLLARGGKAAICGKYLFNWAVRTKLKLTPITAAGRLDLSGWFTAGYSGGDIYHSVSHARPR
The experiment in a line: biochemical. As to conditions: enzyme, strain 1a H77; read-out: HCV Polymerase Strain 1a H77 IC50. Also noted: species or system HCV genotype 1a. The method, boiled down:
as §1

In assay [3] the target is T2, HCV NS5B polymerase 1a-H77-C316Y (Hepatitis C virus genotype 1a, UniProt P27958, C2736Y).
T2 construct: six-histidine tag; made in house; host or cells: E. coli
T2 sequence (P27958 2421-2990 C2736Y): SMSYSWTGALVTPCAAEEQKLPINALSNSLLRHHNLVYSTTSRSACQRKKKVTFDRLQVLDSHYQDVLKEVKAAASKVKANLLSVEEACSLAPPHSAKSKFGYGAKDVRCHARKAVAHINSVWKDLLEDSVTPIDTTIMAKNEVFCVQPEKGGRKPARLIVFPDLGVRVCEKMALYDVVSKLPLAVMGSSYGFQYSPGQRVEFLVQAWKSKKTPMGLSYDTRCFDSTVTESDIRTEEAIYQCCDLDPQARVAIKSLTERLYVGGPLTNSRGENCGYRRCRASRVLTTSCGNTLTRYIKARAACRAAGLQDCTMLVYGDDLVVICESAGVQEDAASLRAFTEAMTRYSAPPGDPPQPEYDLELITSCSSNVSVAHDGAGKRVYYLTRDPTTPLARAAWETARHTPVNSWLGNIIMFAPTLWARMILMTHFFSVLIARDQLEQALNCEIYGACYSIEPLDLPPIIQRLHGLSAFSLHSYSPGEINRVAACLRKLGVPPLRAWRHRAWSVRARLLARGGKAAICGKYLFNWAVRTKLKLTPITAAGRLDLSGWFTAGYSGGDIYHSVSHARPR
The experiment in a line: biochemical. Also noted: species or system HCV genotype 1a. The method, boiled down: as §1

Assay [4] has as its system chimeric replicon with genotype 2b NS5B. The experiment in a line: microbe, parasite or virus in culture. Type of assay: cell-based, HCV genotype 2b. As to conditions: Hepatitis C virus, read-out: 2b chimera 5% FBS EC50.
The subject of assay [5] is HCV 1a-H77 transient subgenomic replicon in Huh-7 derived cell line. Nature of the assay: microbe, parasite or virus in culture. Format: cell-based, HCV genotype 1a. As to conditions: Hepatitis C virus, Huh-7; transient replicon, 5% FBS; read-out: Transient Replicon 1a H77 5% FBS EC50. The method, boiled down: (§2)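 Transient format: T7-transcribed replicon RNA lacking Neo, electroporated into Huh-7-derived cells (5×10^3/well), input RNA checked by luciferase at 4 h. Three-fold compound dilution series, 0.5% DMSO, 4 days at 37° C; EC50 from luciferase signal in lysed cells.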

Assay [6] concerns HCV 1a-H77-C316Y transient subgenomic replicon in Huh-7 derived cell line. Nature of the assay: microbe, parasite or virus in culture. As to conditions: for pEC50: Hepatitis C virus, Huh-7, read-out: Transient Replicon 1a H77-C316Y 5% FBS EC50; for Transient Replicon Fold Resistance C316Y/1a: ratio of transient replicon EC50s, C316Y / 1a H77. Format: cell-based, HCV genotype 1a. In a few lines:
as §2

In assay [7] the test system is HCV 1b-BB7 subgenomic replicon. The experiment in a line: microbe, parasite or virus in culture. Format: cell-based, HCV genotype 1b. As to conditions: Hepatitis C virus, stable replicon.
The subject of assay [8] is chimeric replicon with genotype 4a NS5B. Nature of the assay: microbe, parasite or virus in culture. Type of assay: cell-based, HCV genotype 4a. As to conditions: Hepatitis C virus, read-out: 4a chimera 5% FBS EC50.
Assay [9] deals with T3, HCV NS5B polymerase 1b BK strain (Hepatitis C virus genotype 1b, UniProt P26663).
T3 construct: six-histidine tag; made in house; host or cells: E. coli
T3 sequence (P26663 2420-2989): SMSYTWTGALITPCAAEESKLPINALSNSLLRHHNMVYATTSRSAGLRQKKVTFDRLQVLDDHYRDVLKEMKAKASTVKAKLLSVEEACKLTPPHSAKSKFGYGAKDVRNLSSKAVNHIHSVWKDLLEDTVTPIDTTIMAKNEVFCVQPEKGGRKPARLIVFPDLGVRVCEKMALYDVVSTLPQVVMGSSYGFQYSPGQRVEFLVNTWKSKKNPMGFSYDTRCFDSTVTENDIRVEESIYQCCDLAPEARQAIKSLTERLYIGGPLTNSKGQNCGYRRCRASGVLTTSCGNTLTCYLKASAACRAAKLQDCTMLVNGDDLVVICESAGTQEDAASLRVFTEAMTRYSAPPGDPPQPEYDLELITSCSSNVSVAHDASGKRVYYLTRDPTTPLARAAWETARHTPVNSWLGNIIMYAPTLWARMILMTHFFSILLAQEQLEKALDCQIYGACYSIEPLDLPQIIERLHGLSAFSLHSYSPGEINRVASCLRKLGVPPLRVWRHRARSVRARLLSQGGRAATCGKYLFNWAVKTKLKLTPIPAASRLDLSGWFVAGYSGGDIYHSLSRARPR
The experiment in a line: HCV NS5B polymerase enzymatic inhibition assay, strain 1b BK. Type of assay: biochemical. The following applies: enzyme, strain 1b BK; read-out: HCV Polymerase Strain 1b BK IC50. In a few lines:
as §1

Assay [10] relates to chimeric replicon with 2a-J6CF-derived NS5B. The experiment in a line: microbe, parasite or virus in culture. Type of assay: cell-based, HCV genotype 2a. The following applies: Hepatitis C virus, read-out: 2a chimera 5% FBS EC50.
The subject of assay [11] is HCV 1a-H77 subgenomic replicon. Nature of the assay: microbe, parasite or virus in culture. As to conditions: Hepatitis C virus, stable replicon. Format: cell-based, HCV genotype 1a.
Assay [12] deals with chimeric replicon with genotype 3a NS5B. Nature of the assay: microbe, parasite or virus in culture. As to conditions: Hepatitis C virus, read-out: 3a chimera 5% FBS EC50. Type of assay: cell-based, HCV genotype 3a.
Setting [13] is: strain 1b BB7, 5% FBS + 40% human plasma, read-out: 1b BB7 5% FBS + 40% Human Plasma EC50.
The mark [14] stands for this setting: strain 1b BB7, 5% FBS, no human plasma, read-out: 1b BB7 5% FBS EC50.
Where [15] appears, read: strain 1b BB7, 5% FBS, read-out: 1b BB7 5% FBS EC50.
Where [16] appears, read: 5% FBS, absence of human plasma, read-out: Stable Replicon 1a H77 5% FBS EC50.
Setting [17] is: strain 1a H77, 5% FBS + 40% human plasma, read-out: 1a H77 5% FBS + 40% Human Plasma EC50.
Where [18] appears, read: strain 1a H77, 5% FBS, no human plasma, read-out: 1a H77 5% FBS EC50.
Setting [19] is: strain 1a H77, 5% FBS, read-out: 1a H77 5% FBS EC50.

For `CS(=O)(=O)N(CCCN1CCS(=O)(=O)CC1)c1cc2oc(-c3ccc(F)cc3)c(C3=NOCCN3)c2cc1C1CC1` [Example 114, N-[5-cyclopropyl-3-(5,6-dihydro-4H-1,2,4-oxadiazin-3-yl)-2-(4-fluorophenyl)-1-benzofuran-6-yl]-N-[3-(1,1-dioxidothiomorpholin-4-yl)propyl]methanesulfonamide], the “C316Y/1a Fold Resistance” value in [1] is listed as 10 fold. The results for the pIC50 in assay [2], in [3] and in assay [9] were 8.15, 7.15 and 7.37, respectively. The pEC50 was 6.48 in assay [4]; 7.66 in assay [5]; 6.62 in assay [6]; 6.42 in assay [7] (setting [13]); 7.48 in assay [7] (setting [14]); 7.48 in assay [7] (setting [15]). Besides, the pEC50 was 6.51 in assay [8]; 6.52 in assay [10]; 7.57 in assay [11] (setting [16]); 6.39 in assay [11] (setting [17]); 7.57 in assay [11] (setting [18]); 7.57 in assay [11] (setting [19]). In addition, the negative-log EC50 (pEC50) in assay [12] was 7.25. The “Transient Replicon Fold Resistance C316Y/1a” value in assay [6] was 11 fold.
For the molecule `CS(=O)(=O)N(CCCCCO)c1cc2oc(-c3ccc(F)cc3)c(C3=NOCN3)c2cc1C1CC1` [Example 147, N-[5-cyclopropyl-3-(4,5-dihydro-1,2,4-oxadiazol-3-yl)-2-(4-fluorophenyl)-1-benzofuran-6-yl]-N-(5-hydroxypentyl)methanesulfonamide], in assay [1], the “C316Y/1a Fold Resistance” value is given as 14 fold. Moreover, the pIC50 in [2] was 8.46; in [3], 7.31; in [9], 8.05. In addition, the pEC50 is 7.21 in assay [4]; 8.01 in assay [5]; 7.11 in assay [6]; 5.74 in assay [7] (setting [13]); 8.01 in assay [7] (setting [14]); 8.01 in [7] (setting [15]). Also, the negative logarithm of the EC50 (pEC50) in assay [8] is 7.18; in [10], 7.07; in assay [11] (setting [16]), 8.05; in [11] (setting [17]), 5.77; in [11] (setting [18]), 8.05; in assay [11] (setting [19]), 8.05. The pEC50 in assay [12] was 7.99. Moreover, the “Transient Replicon Fold Resistance C316Y/1a” value in assay [6] amounted to 8 fold.
As for `CC(C)(C#N)CCCCN(c1cc2oc(-c3ccc(F)cc3)c(C3=NOCCN3)c2cc1C1CC1)S(C)(=O)=O` [Example 115, N-(5-cyano-5-methylhexyl)-N-[5-cyclopropyl-3-(5,6-dihydro-4H-1,2,4-oxadiazin-3-yl)-2-(4-fluorophenyl)-1-benzofuran-6-yl]methanesulfonamide], the “C316Y/1a Fold Resistance” value in assay [1] is listed as 10 fold. In addition, the pIC50 was 8.41 in assay [2], 7.43 in assay [3] and 7.48 in [9]. In addition, the pEC50 is 6.84 in assay [4]; 8.14 in [5]; 7.04 in assay [6]; 6.90 in assay [7] (setting [13]); 7.85 in assay [7] (setting [14]); 7.85 in assay [7] (setting [15]). Moreover, the negative-log EC50 (pEC50) in assay [8] was 6.91; in [10], 6.78; in [11] (setting [16]), 8.02; in assay [11] (setting [17]), 7.42; in assay [11] (setting [18]) it was 8.02; in [11] (setting [19]), 8.02. Also, the pEC50 in [12] was 7.52. In addition, the “Transient Replicon Fold Resistance C316Y/1a” value in [6] stood at 12 fold.
For `CS(=O)(=O)N(CCCCC(=O)O)c1cc2oc(-c3ccc(F)cc3)c(-c3ncc[nH]3)c2cc1C1CC1` [Example 92, 5-{[5-cyclopropyl-2-(4-fluorophenyl)-3-(1H-imidazol-2-yl)-1-benzofuran-6-yl](methylsulfonyl)amino}pentanoic acid], the “C316Y/1a Fold Resistance” value in assay [1] is reported as 9 fold. Also, the negative-log IC50 (pIC50) in [2] is 8.31; in assay [3], 7.37; in assay [9] it was 8.22. Moreover, the pEC50 was 6.45 in assay [4]; 7.71 in assay [5]; 6.32 in assay [6]; 6.85 in [7] (setting [13]); 7.59 in assay [7] (setting [14]); 7.59 in assay [7] (setting [15]). The pEC50 in [8] is 6.55; in [10] it was 6.39; in assay [11] (setting [16]), 7.67; in assay [11] (setting [17]), 6.76; in [11] (setting [18]), 7.67; in [11] (setting [19]), 7.67. Also, the pEC50 in assay [12] is 7.37. Moreover, in [6], the “Transient Replicon Fold Resistance C316Y/1a” value came out at 25 fold.
Regarding `CCOC(=O)CCCN(c1cc2oc(-c3ccc(F)cc3)c(C3=NOCCN3)c2cc1C1CC1)S(C)(=O)=O` [Example 121, ethyl 4-{[5-cyclopropyl-3-(5,6-dihydro-4H-1,2,4-oxadiazin-3-yl)-2-(4-fluorophenyl)-1-benzofuran-6-yl](methylsulfonyl)amino}butanoate], in assay [1], the “C316Y/1a Fold Resistance” value was 12 fold. In addition, the negative logarithm of the IC50 (pIC50) was 8.46 in assay [2], 7.40 in assay [3] and 7.26 in [9]. For the same molecule, the pEC50 in [4] is 6.00; in assay [5], 7.55; in [6], 6.54; in assay [7] (setting [13]) it was 6.41; in assay [7] (setting [14]), 7.17; in assay [7] (setting [15]), 7.17. For the same molecule, the pEC50 in [8] was 6.01; in assay [10], 6.00; in assay [11] (setting [16]) it was 7.41; in [11] (setting [17]), 6.51; in assay [11] (setting [18]) it was 7.41; in assay [11] (setting [19]), 7.41. Further, the negative-log EC50 (pEC50) in [12] was 6.92. Besides, the “Transient Replicon Fold Resistance C316Y/1a” value in [6] is listed as 10 fold.
In the case of `Cc1cnc(-c2c(-c3ccc(F)cc3)oc3cc(N(CCC(C)C)S(C)(=O)=O)c(C4CC4)cc23)[nH]1` [Example 172, N-[5-cyclopropyl-2-(4-fluorophenyl)-3-(5-methyl-1H-imidazol-2-yl)-1-benzofuran-6-yl]-N-(3-methylbutyl)methanesulfonamide], in assay [1], the “C316Y/1a Fold Resistance” value was 7 fold. Further, the pIC50 in [2] was 7.88; in [3], 7.06; in [9], 6.75. The pEC50 in assay [4] is 6.00; in assay [5], 7.39; in [6] it was 6.99; in assay [7] (setting [13]) it was 5.95; in assay [7] (setting [14]), 6.95; in [7] (setting [15]), 6.95. Moreover, the negative-log EC50 (pEC50) in assay [8] is less than 6.00; in [10] it was 6.00; in assay [11] (setting [16]), 7.17; in [11] (setting [17]) it was 5.91; in [11] (setting [18]), 7.17; in [11] (setting [19]), 7.17. The negative-log EC50 (pEC50) in assay [12] was 6.63. Besides, the “Transient Replicon Fold Resistance C316Y/1a” value in [6] came to 3 fold.
As for `CS(=O)(=O)N(CCCCO)c1cc2oc(-c3ccc(F)cc3)c(-c3ncc[nH]3)c2cc1C1CC1` [Example 5, N-[5-cyclopropyl-2-(4-fluorophenyl)-3-(1H-imidazol-2-yl)-1-benzofuran-6-yl]-N-(4-hydroxybutyl)methanesulfonamide], the “C316Y/1a Fold Resistance” value in assay [1] turned out to be 14 fold. Also, the pIC50 in assay [2] was 8.41; in [3] it was 7.28; in assay [9], 7.77. Also, the pEC50 in assay [4] was 7.55; in [5] it was 8.52; in assay [6] it was 7.06; in assay [7] (setting [13]), 7.66; in assay [7] (setting [14]), 8.43; in assay [7] (setting [15]), 8.43. The pEC50 in assay [8] is 7.49; in assay [10] it was 7.54; in [11] (setting [16]) it was 8.49; in [11] (setting [17]) it was 7.30; in assay [11] (setting [18]), 8.50; in assay [11] (setting [19]), 8.49. The pEC50 in assay [12] is 8.33. For the same molecule, the “Transient Replicon Fold Resistance C316Y/1a” value in assay [6] is on record as 29 fold.
